Assay results from US20230265094A1, “RIPK1 INHIBITORS AND METHODS OF USE” (Merck Sharp & Dohme LLC, priority 2020, published 2023).
Structures can show the parent of a compound that is named as a salt.

What follows are molecules tested against T1, RIPK1 (Homo sapiens, UniProt Q13546) (assay: RIPK1-ADP-Glo enzymatic assay). Settings: ADP-Glo luminescent ADP detection; 25 nM GST-RIPK1 kinase domain (residues 1-327), 300 μM ATP, dephosphorylated-MBP substrate; 30 min pre-incubation, 150 min reaction.
T1 construct: recombinant GST-RIPK1 kinase domain (residues 1-327) enzyme produced from baculovirus-transfected Sf21 cells; host or cells: baculovirus-transfected Sf21 insect cells
T1 sequence (Q13546 1-327): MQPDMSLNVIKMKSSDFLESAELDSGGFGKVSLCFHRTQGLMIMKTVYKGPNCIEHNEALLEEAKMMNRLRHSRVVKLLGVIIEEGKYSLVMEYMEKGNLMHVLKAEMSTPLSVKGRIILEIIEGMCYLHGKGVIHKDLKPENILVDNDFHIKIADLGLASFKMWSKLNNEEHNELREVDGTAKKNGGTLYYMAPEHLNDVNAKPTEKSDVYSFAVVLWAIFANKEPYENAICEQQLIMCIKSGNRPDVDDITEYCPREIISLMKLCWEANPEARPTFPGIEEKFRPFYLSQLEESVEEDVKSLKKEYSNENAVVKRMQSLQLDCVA
Type: biochemical
Protocol: RIPK1-ADP-Glo Enzymatic Assay
The enzymatic activity of RIPK1 is measured using an assay derived from ADP-Glo kit (Promega™), which provides a luminescent-based ADP detection system. Specifically, the ADP generated by RIPK1 kinase is proportionally detected as luminescent signals in a homogenous fashion. In this context, the assessment of the inhibitory effect of small molecules (EC50) is measured by the effectiveness of the compounds to inhibit the ATP to ADP conversion by RIPK1.
In this assay, the potency (EC50) of each compound was determined from a ten-point (1:3 serial dilution; top compound concentration of 100000 nM) titration curve using the following outlined procedure. To each well of a white ProxiPlus 384 well-plate, 30 nL of compound (1% DMSO in final assay volume of 3 μL) was dispensed, followed by the addition of 2 μL of 1×assay buffer (25 mM Hepes 7.3, 20 mM MgCl2, 50 mM NaCl, 1 mM DTT, 0.005% Tween20, and 0.02% BSA) containing 37.5 nM of GST-RIPK1 (recombinant GST-RIPK1 kinase domain (residues 1-327) enzyme produced from baculovirus-transfected Sf21 cells: MW=62 kDa). Plates were placed in an ambient temperature humidified chamber for a 30 minutes pre-incubation with compound. Subsequently, each reaction was initiated by the addition of 1 μL 1×assay buffer containing 900 μM ATP and […] dephosphorylated-MBP substrate. The final reaction in each well of 3 μL consists of 25 nM of GST-RIPK1, 300 μM ATP, and 3 μM dephosphorylated-MBP. Kinase reactions were allowed to proceed for 150 minutes prior to adding ADP-Glo reagents per Promega's outlined kit protocol. Dose-response curves were generated by plotting percent effect (% product conversion; Y-axis) vs. Log10 compound concentrations (X-axis). EC50 values were calculated using a non-linear regression, four-parameters sigmoidal dose-response model.
`O=C(N1CC2(CCCO2)C1)N1N=CC[C@H]1c1cc(F)cc(F)c1` [Example 1.26, (S)-(5-(3,5-difluorophenyl)-4,5-dihydro-1H-pyrazol-1-yl)(5-oxa-2-azaspiro[3.4]octan-2-yl)methanone] showed an EC50 of 0.0474 µM. `O=C(N1CC(O)(C(F)(F)F)C1)N1N=CC[C@H]1c1cc(F)cc(F)c1` [Example 1.27, (S)-(5-(3,5-difluorophenyl)-4,5-dihydro-1H-pyrazol-1-yl)(3-hydroxy-3-(trifluoromethyl)azetidin-1-yl)methanone] gave an EC50 of 0.988 µM. `CC1(O)CN(C(=O)N2N=CC[C@H]2c2cc(F)cc(F)c2)C1` [Example 1.28, (S)-(5-(3,5-difluorophenyl)-4,5-dihydro-1H-pyrazol-1-yl)(3-hydroxy-3-methylazetidin-1-yl)methanone] showed an EC50 of 3.59 µM. `CC1(F)CN(C(=O)N2N=CC[C@H]2c2cc(F)cc(F)c2)C1` [Example 1.29, (S)-(5-(3,5-difluorophenyl)-4,5-dihydro-1H-pyrazol-1-yl)(3-fluoro-3-methylazetidin-1-yl)methanone] showed an EC50 of 0.0617 µM. Molecule `CC(C)C1(O)CN(C(=O)N2N=CC[C@H]2c2cc(F)cc(F)c2)C1` [Example 1.30, (S)-(5-(3,5-difluorophenyl)-4,5-dihydro-1H-pyrazol-1-yl)(3-hydroxy-3-isopropylazetidin-1-yl)methanone] has an EC50 of 2.29 µM. `O=C(N1CC(F)C1)N1N=CC[C@H]1c1cc(F)cc(F)c1` [Example 1.31, (S)-(5-(3,5-difluorophenyl)-4,5-dihydro-1H-pyrazol-1-yl)(3-fluoroazetidin-1-yl)methanone] gave an EC50 of 0.0384 µM. `O=C(N1CC(F)(F)C1)N1N=CC[C@H]1c1cc(F)cc(F)c1` [Example 1.32, (S)-(3,3-difluoroazetidin-1-yl)(5-(3,5-difluorophenyl)-4,5-dihydro-1H-pyrazol-1-yl)methanone] was tested, and the EC50 was 0.0172 µM. `O=C(N1CC(Cl)C1)N1N=CC[C@H]1c1cc(F)cc(F)c1` [Example 1.33, (S)-(3-chloroazetidin-1-yl)(5-(3,5-difluorophenyl)-4,5-dihydro-1H-pyrazol-1-yl)methanone] showed an EC50 of 0.0183 µM. With `O=C(N1CC(O)(C2CC2)C1)N1N=CC[C@H]1c1cc(F)cc(F)c1` [Example 1.34, (S)-(3-cyclopropyl-3-hydroxyazetidin-1-yl)(5-(3,5-difluorophenyl)-4,5-dihydro-1H-pyrazol-1-yl)methanone] the EC50 was 2.46 µM. Molecule `O=C(N1CC2(C1)CN(c1cnccn1)C2)N1N=CC[C@H]1c1cc(F)cc(F)c1` [Example 1.35, (S)-(5-(3,5-difluorophenyl)-4,5-dihydro-1H-pyrazol-1-yl)(6-(pyrazin-2-yl)-2,6-diazaspiro[3.3]heptan-2-yl)methanone] has an EC50 of 5.15 µM. `CC1(C#N)CN(C(=O)N2N=CC[C@H]2c2cc(F)cc(F)c2)C1` [Example 1.36, (S)-1-(5-(3,5-difluorophenyl)-4,5-dihydro-1H-pyrazole-1-carbonyl)-3-methylazetidine-3-carbonitrile] showed an EC50 of 0.0623 µM. For `O=C(N1CC(C(F)F)C1)N1N=CC[C@H]1c1cc(F)cc(F)c1` [Example 1.37, (S)-(3-(difluoromethyl)azetidin-1-yl)(5-(3,5-difluorophenyl)-4,5-dihydro-1H-pyrazol-1-yl)methanone], the EC50 was 0.0226 µM. In the case of `COCCC1CN(C(=O)N2N=CC[C@H]2c2cc(F)cc(F)c2)C1` [Example 1.38, (S)-(5-(3,5-difluorophenyl)-4,5-dihydro-1H-pyrazol-1-yl)(3-(2-methoxyethyl)azetidin-1-yl)methanone], the EC50 is reported as 0.105 µM. Work on `N#CC1(c2ccccc2)CN(C(=O)N2N=CC[C@H]2c2cc(F)cc(F)c2)C1` [Example 1.39, (S)-1-(5-(3,5-difluorophenyl)-4,5-dihydro-1H-pyrazole-1-carbonyl)-3-phenylazetidine-3-carbonitrile] yielded an EC50 of 0.647 µM. With `CC1CN(C(=O)N2N=CC[C@H]2c2cc(F)cc(F)c2)C1` [Example 1.40, (S)-(5-(3,5-difluorophenyl)-4,5-dihydro-1H-pyrazol-1-yl)(3-methylazetidin-1-yl)methanone] the EC50 was 0.026 µM. `O=C(N1CC(c2ccccc2)C1)N1N=CC[C@H]1c1cc(F)cc(F)c1` [Example 1.41, (S)-(5-(3,5-difluorophenyl)-4,5-dihydro-1H-pyrazol-1-yl)(3-phenylazetidin-1-yl)methanone] gave an EC50 of 0.0066 µM. In the case of `O=C(N1CC(c2cccnc2)C1)N1N=CC[C@H]1c1cc(F)cc(F)c1` [Example 1.42, (S)-(5-(3,5-difluorophenyl)-4,5-dihydro-1H-pyrazol-1-yl)(3-(pyridin-3-yl)azetidin-1-yl)methanone, TFA salt], the EC50 is reported as 0.0286 µM. In the case of `O=C(N1CC(F)(c2ccccc2)C1)N1N=CC[C@H]1c1cc(F)cc(F)c1` [Example 1.43, (S)-(5-(3,5-difluorophenyl)-4,5-dihydro-1H-pyrazol-1-yl)(3-fluoro-3-phenylazetidin-1-yl)methanone], the EC50 is reported as 0.775 µM. `O=C(N1CC(O)(c2ccccc2)C1)N1N=CC[C@H]1c1cc(F)cc(F)c1` [Example 1.44, (S)-(5-(3,5-difluorophenyl)-4,5-dihydro-1H-pyrazol-1-yl)(3-hydroxy-3-phenylazetidin-1-yl)methanone] was tested, and the EC50 was 0.811 µM. In the case of `COC1(C)CN(C(=O)N2N=CC[C@H]2c2cc(F)cc(F)c2)C1` [Example 1.45, (S)-(5-(3,5-difluorophenyl)-4,5-dihydro-1H-pyrazol-1-yl)(3-methoxy-3-methylazetidin-1-yl)methanone], the EC50 is reported as 0.0985 µM. For `COC1(C(F)(F)F)CN(C(=O)N2N=CC[C@H]2c2cc(F)cc(F)c2)C1` [Example 1.46, (S)-(5-(3,5-difluorophenyl)-4,5-dihydro-1H-pyrazol-1-yl)(3-methoxy-3-(trifluoromethyl)azetidin-1-yl)methanone], the EC50 was 0.233 µM. `CCOc1cccc(CC2CN(C(=O)N3N=CC[C@H]3c3cc(F)cc(F)c3)C2)c1` [Example 1.48, (S)-(5-(3,5-difluorophenyl)-4,5-dihydro-1H-pyrazol-1-yl)(3-(3-ethoxybenzyl)azetidin-1-yl)methanone] was tested, and the EC50 was 0.0171 µM. `Cc1ccccc1OC1CN(C(=O)N2N=CC[C@H]2c2cc(F)cc(F)c2)C1` [Example 1.49, (S)-(5-(3,5-difluorophenyl)-4,5-dihydro-1H-pyrazol-1-yl)(3-(o-tolyloxy)azetidin-1-yl)methanone] was tested, and the EC50 was 0.0117 µM. Molecule `O=C(N1CC(Oc2ccc(F)cc2)C1)N1N=CC[C@H]1c1cc(F)cc(F)c1` [Example 1.50, (S)-(5-(3,5-difluorophenyl)-4,5-dihydro-1H-pyrazol-1-yl)(3-(4-fluorophenoxy)azetidin-1-yl)methanone] has an EC50 of 0.007 µM. Molecule `O=C(N1CC(c2ccncn2)C1)N1N=CC[C@H]1c1cc(F)cc(F)c1` [Example 1.51, (S)-(5-(3,5-difluorophenyl)-4,5-dihydro-1H-pyrazol-1-yl)(3-(pyrimidin-4-yl)azetidin-1-yl)methanone] has an EC50 of 1.11 µM. `O=C(N1CC(OCc2ncc(Br)s2)C1)N1N=CC[C@H]1c1cc(F)cc(F)c1` [Example 1.52, (S)-(3-((5-bromothiazol-2-yl)methoxy)azetidin-1-yl)(5-(3,5-difluorophenyl)-4,5-dihydro-1H-pyrazol-1-yl)methanone] gave an EC50 of 0.0239 µM. For `O=C(N1CC2(CCCOC2)C1)N1N=CC[C@H]1c1cc(F)cc(F)c1` [Example 1.53, (S)-(5-(3,5-difluorophenyl)-4,5-dihydro-1H-pyrazol-1-yl)(6-oxa-2-azaspiro[3.5]nonan-2-yl)methanone], the EC50 was 0.53 µM. `CS(=O)(=O)C1CN(C(=O)N2N=CC[C@H]2c2cc(F)cc(F)c2)C1` [Example 1.54, (S)-(5-(3,5-difluorophenyl)-4,5-dihydro-1H-pyrazol-1-yl)(3-(methylsulfonyl)azetidin-1-yl)methanone] gave an EC50 of 4.23 µM. Work on `Cc1noc(C2CN(C(=O)N3N=CC[C@H]3c3cc(F)cc(F)c3)C2)n1` [Example 1.55, (S)-(5-(3,5-difluorophenyl)-4,5-dihydro-1H-pyrazol-1-yl)(3-(3-methyl-1,2,4-oxadiazol-5-yl)azetidin-1-yl)methanone] yielded an EC50 of 0.175 µM. Molecule `O=C(N1CC(S(=O)(=O)c2ccc(Br)cc2)C1)N1N=CC[C@H]1c1cc(F)cc(F)c1` [Example 1.57, (S)-(3-((4-bromophenyl)sulfonyl)azetidin-1-yl)(5-(3,5-difluorophenyl)-4,5-dihydro-1H-pyrazol-1-yl)methanone] has an EC50 of 0.0124 µM.
